These results are taken from patent publication US8680139B2 (Progenra, priority 2009, dated 2014).

The test system of data set [1] is HCT-116 cells.
Procedure: (§3) The purpose of this assay is to determine if any of the synthesized compounds are cytotoxic against HCT-116 cells, as measured by resazurin metabolism. Resazurin is metabolized only by living cells from a non-fluorescent molecule into Resorufin, a highly red fluorescent dye. […] The cells were cultured in an incubator at 37° C. in 5% CO2 and 95% humidified air. […] The final concentration DMSO was 0.5% (v/v) in all samples. The plates were returned to the incubator for 72 hours. Following 72 hours of test compound exposure, 10 μL of 0.2 mg/mL Resazurin (Sigma) in phosphate buffered saline was added to each well and the plate was returned to the incubator for 3-6 hours. Since living cells metabolize Resazurin, the fluorescence of the reduction product of Resazurin was measured using a microplate fluorometer with λex=531 nm and λem=590 nm filters. Resazurin dye in medium without cells was used to determine the background, which was subtracted from the data for all experimental wells.
Another data set relates to HT29. In words: NCI-60 Human Tumor Cell Line Growth Inhibition Screen. Format: cell-based. The note with it: HT-29, HT29, Colon Cancer, 48 hours, SRB. The procedure:
(§1) Various human tumor cell lines representing the NCI-60 cancer screening panel were grown in RPMI 1640 medium containing 5% fetal bovine serum and 2 mM L-glutamine. For a typical screening experiment, cells were inoculated into 96 well microtiter plates in 100 μL at plating densities ranging from 5,000 to 40,000 cells/well depending on the doubling time of individual cell lines. After cell inoculation, the microtiter plates were incubated at 37° C., 5% CO2, 95% air and 100% relative humidity for 24 hours prior to addition of the test compound. After 24 hours, two plates of each cell line were fixed in situ with TCA, to represent a measurement of the cell population for each cell line at the time of test compound addition (Tz). Experimental test compounds were solubilized in 100% (v/v) DMSO at 400-fold the desired final maximum test concentration and stored frozen prior to use. At the time of test compound addition, an aliquot of frozen concentrate was thawed and diluted to twice the desired final maximum test concentration with complete medium containing 50 μg/ml gentamicin. Additional four, 10-fold or ½ log serial dilutions were made to provide a total of five test compound concentrations plus control. Aliquots of 100 μl of these different test compound dilutions were added to the appropriate microtiter wells already containing 100 μl of medium, resulting in the required final test compound concentrations.
(§2) Following test compound addition, the plates were incubated for an additional 48 hours at 37° C., 5% CO2, 95% air, and 100% relative humidity. For adherent cells, the assay was terminated by the addition of cold TCA. Cells were fixed in situ by the gentle addition of 50 μl of cold 50% (w/v) TCA and incubated for 60 minutes at 4° C. The supernatant was discarded, and the plates were washed five times with tap water and air dried. Sulforhodamine B (SRB) solution (100 μl) at 0.4% (w/v) in 1% acetic acid was added to each well, and plates were incubated for 10 minutes at room temperature. After staining, unbound dye was removed by washing five times with 1% acetic acid and the plates were air dried. Bound stain was subsequently solubilized with 10 mM trizma base, and the absorbance was read on an automated plate reader at a wavelength of 515 nm. For suspension cells, the methodology was the same except that the assay was terminated by fixing settled cells at the bottom of the wells by gently adding 50 μl of 80% TCA. Using the seven absorbance measurements [time zero, (Tz), control growth, (C), and test growth in the presence of test compound at the five concentration levels (Ti)], the percentage growth was calculated at each of the test compound concentrations levels. Percentage growth inhibition was calculated as: [(Ti−Tz)/(C−Tz)]×100 for concentrations for which Ti≧Tz or [(Ti−Tz)/Tz]×100 for concentrations for which Ti<Tz. Growth inhibition of 50% (GI50) was calculated from [(Ti−Tz)/(C−Tz)]×100=50, which is the test compound concentration resulting in a 50% reduction in the net protein increase (as measured by SRB staining) in control cells during the test compound incubation.

The next data set concerns A549/ATCC. Described as above. Format: cell-based. The note with it: Non-Small Cell Lung Cancer, 48 hours, SRB. The procedure: as §1, §2
In a further data set the test system is U251. The data set is described as above. The format is cell-based. The settings on record: U-251, U251, CNS Cancer, 48 hours, SRB. The protocol:
as §1, §2

Another data set has as its system PC-3. Described as above. The note with it: PC-3, Prostate Cancer, 48 hours, SRB. The format is cell-based. The protocol:
as §1, §2

A further data set has as its system CAKI-1. The description is as above. The format is cell-based. The note with it: CAKI-1, Renal Cancer, 48 hours, SRB. The protocol: as §1, §2
The test system of the next data set is HL-60(TB). Described as above. The note with it: Leukemia, 48 hours, SRB. Format: cell-based. The protocol:
as §1, §2

The test system of another data set is OVCAR-3. The description is as above. The note with it: OVCAR-3, Ovarian Cancer, 48 hours, SRB. The format is cell-based. The protocol:
as §1, §2

For the next data set, the system named is LOX IMVI. Described as above. The format is cell-based. The settings on record: Melanoma, 48 hours, SRB. The protocol:
as §1, §2

The test system of the next data set is MCF7. Described as above. The format is cell-based. The note with it: MCF7, Breast Cancer, 48 hours, SRB. The procedure: as §1, §2
Data set [2] deals with HCT-116 cells. In words: HCT-116 Combination Cytotoxicity Assay. The settings on record: constant ratio, 72 hours. The format is cell-based, human.
Data set [3] deals with human multiple myeloma tumor cells. Briefly: In vivo Efficacy of P5091. The settings on record: SCID mice, 10 mg/kg intravenously twice a week for three weeks. The procedure:
Severe combined immunodeficient mice inoculated subcutaneously with human multiple myeloma tumor cells were treated intravenously twice a week for three weeks with 10 mg/kg P5091. […] See D. Chauhan et al., Abstract No. 610 (Deubiquitylating Enzyme USP-7, a Novel Therapeutic Target in Multiple Myeloma), 51st ASH Annual Meeting and Exposition, New Orelans, La., December 2009.

Data set [4] can be described thus: HCT-116 Cellular Cytotoxicity Assay. The settings on record: human, HCT-116 cells, pH 7.2.
Procedure: as §3

A word on the EC50: it is the concentration giving half of the maximal effect. A higher EC50 goes with a need for much substance. The molecule “N-(5-(tert-butyl)isoxazol-3-yl)-5-((3,5-dichloropyridin-4-yl)thio)-4-nitrothiophene-2-carboxamide [Example 201]” returned an EC50 with HCT-116 cells [1] of 12900 nM.

As a reminder, the GI50 is the concentration at which growth is held to half of that of the control. As to `CC(=O)c1cc([N+](=O)[O-])c(Sc2cccc(Cl)c2Cl)s1` [Example P5091, 1-[5-(2,3-dichlorophenyl)sulfanyl-4-nitro-2-thienyl]ethanone], the GI50 in the data set on HT29 came out at 2070 nM; with A549/ATCC it was 16300 nM; with U251 it was 2330 nM; with PC-3, 1780 nM; with CAKI-1, 2170 nM; with HL-60(TB), 1820 nM. In addition, the GI50 stood at 1650 nM in the data set on OVCAR-3, 1840 nM in the data set with LOX IMVI and 1940 nM with MCF7. Moreover, the “CI (mean ± SD) ED75” value in the data set with HCT-116 cells [2] (combination with Chlormethine) stood at 0.67 ± 0.07; in the data set on HCT-116 cells [2] (combination with Doxorubicin), 0.73 ± 0.08; in the data set with HCT-116 cells [2] (combination with Etoposide), 0.54 ± 0.04. In addition, the “CI (mean ± SD) ED90” value in the data set with HCT-116 cells [2] (combination with Chlormethine) was found to be 0.77 ± 0.05; with HCT-116 cells [2] (combination with Doxorubicin), 0.81 ± 0.02; in the data set with HCT-116 cells [2] (combination with Etoposide) it was 0.63 ± 0.01. In addition, the human plasmacytoma growth result in data set [3] was “significantly inhibited human plasmacytoma growth”. In [3], the survival entry is given as “significantly enhanced survival”. Moreover, in data set [4], the concentration for a half-maximal effect (EC50) at 72 h amounted to 9210 nM.
